Measured values taken from patent publication US5800809A, “Non-crosslinked acrylic polymers and non-crosslinked anion exchange resins” (priority 1992, dated 1998).

What was measured:
[1] = design: species or system CD-1 mouse; details: mouse, in vivo
Method: (3) Micronucleus test on mice.
test on mice HBS-107 was given orally at a dosage of
was prepared after 24, 48 and 72 hours

[2] = rabbit, in vivo
[3] = rat, in vivo

## polyacryloyloxyethyl-N,N-dimethylbenzyl ammonium salt [Example 1]
[1]
  induction of micronucleus formation: No induction
[2]
  irritation (in words): not strong
[3]
  urine volume, Na^+ and Cl^-: Significant reduction
